One assay has as its system MDA-MB-231. Briefly: Cytotoxicity against human MDA-MB-231 cells assessed as reduction in cell viability after 72 hrs by MTT assay. To be noted: for IC50: MDA-MB-231, 72 h. In kind it is functional, cell-based. Background: Tetrazolium assays rely on reduction of a dye to a coloured formazan, in cell work by metabolically active cells.
The test system of a further assay is MCF7. Briefly: Cytotoxicity against human MCF7 cells assessed as reduction in cell viability after 72 hrs by MTT assay. In kind it is functional, cell-based. As to conditions: for IC50: MCF7, 72 h.

Molecules are shown by their SMILES. Calls of active or inactive are those of the source. The calls are words filed in the database; no cut-off is given here.

By IC50 is commonly meant the concentration at which inhibition is half-maximal.

In the case of `CC(=O)O[C@H]1C(=O)[C@@]2(C)[C@H]([C@H](OC(=O)c3ccccc3)[C@]3(O)C[C@H](OC(=O)[C@H](O)[C@@H](NC(=O)c4ccccc4)c4ccccc4)C(C)=C1C3(C)C)[C@]1(OC(C)=O)CO[C@@H]1C[C@@H]2O` [PACLITAXEL], the IC50 in the assay on MDA-MB-231 amounted to 0.0039 µM.
As for `O=C(/C=C/c1ccccc1)c1ccc(O)cc1O` [2',4'-DIHYDROXYCHALCONE], the IC50 with MCF7 and in the assay with MDA-MB-231 was greater than 10 µM throughout.
For `O=C(/C=C/c1ccc(O)cc1)c1ccc(O)c(O)c1O`, the IC50 with MCF7 and in the assay with MDA-MB-231 was greater than 10 µM throughout.
In the case of `COc1ccc2c(c1)OC(c1ccccc1)CC2=O` (stereo not given), the result in the assay on MCF7 and in the assay on MDA-MB-231 was inactive.
Turning to `COc1ccc(/C=C/C(=O)c2ccc(OC)cc2OC)cc1` [METOCHALCONE], the figures for the IC50 with MCF7 and with MDA-MB-231 were 1.5 µM and 7.9 µM, respectively.
Consider `O=C(/C=C/c1ccc(O)cc1)c1cc(Cc2c(O)ccc(C(=O)/C=C/c3ccc(O)cc3)c2O)c(O)cc1O`, for which the IC50 in the assay with MCF7 and in the assay with MDA-MB-231 was greater than 10 µM in each case.
On to `COc1ccc(/C=C/C(=O)c2cc(OC)c(OC)c(OC)c2)cc1`, for which the IC50 in the assay with MCF7 stood at 0.71 µM; in the assay on MDA-MB-231, 6.5 µM.
On to `O=C(/C=C/c1ccc(O)cc1)c1ccc(O)cc1` [4,4'-DIHYDROXYCHALCONE], for which the IC50 in the assay on MCF7 and with MDA-MB-231 was greater than 10 µM in each case.
As to `O=C(CCc1ccc(O)cc1)c1ccc(O)cc1O` [DAVIDIGENIN], the IC50 in the assay with MCF7 and in the assay with MDA-MB-231 was greater than 10 µM in each case.
For the compound `O=C(/C=C/c1ccc(O)cc1)c1ccc(O)cc1O` [ISOLIQUIRITIGENIN], the IC50 in the assay on MCF7 and with MDA-MB-231 was greater than 10 µM each time.
Turning to `COc1cc(C(=O)/C=C/c2ccc(Cl)c(Cl)c2)cc(OC)c1OC`, the IC50 in the assay on MCF7 is 7 µM; in the assay with MDA-MB-231 it was greater than 10 µM.
For `COc1ccc(C(=O)CCc2ccccc2)c(O)c1`, in that order: greater than 10 µM and greater than 10 µM.
For the compound `O=C(/C=C/c1ccc(O)cc1)c1c(O)cc(O)cc1O` [4,2',4',6'-TETRAHYDROXYCHALCONE], the IC50 with MCF7 and with MDA-MB-231 was greater than 10 µM throughout.
Consider `O=C(/C=C/c1ccc(O)cc1)c1cc(O)ccc1O`, for which the IC50 in the assay with MCF7 and with MDA-MB-231 was greater than 10 µM throughout.
Consider `O=C(CCc1ccc(O)cc1)c1c(O)cc(O)cc1O` [PHLORETIN], for which the IC50 with MCF7 and in the assay with MDA-MB-231 was greater than 10 µM throughout.
In the case of `O=C1CC(c2ccc(O)cc2)Oc2cc(O)cc(O)c21` (stereo not given), the result in the assay with MCF7 and with MDA-MB-231 was inactive.
Regarding `COc1ccc(C(=O)/C=C/c2ccc(O)c(OC)c2)c(OC)c1`, the IC50 in the assay on MCF7 is 3.1 µM; with MDA-MB-231, greater than 10 µM.
For `COc1cc(/C=C/C(=O)c2ccc(OC)c(OC)c2OC)cc(OC)c1OC`, in that order: greater than 10 µM and 7.4 µM.

For the origin of these results see ChEMBL document CHEMBL3779875, “Cytotoxic Evaluation against Breast Cancer Cells of Isoliquiritigenin Analogues from Spatholobus suberectus and Their Synthetic Derivatives” (J Nat Prod, 2016).
